Results as given in patent US20250360132A1, “METHODS OF ADMINISTERING MYOSIN INHIBITORS” (MYOKARDIA, INC., priority 2022, published 2025).

How the values were obtained:
[1] = system: adults with symptomatic NYHA class II and III obstructive HCM; experiment: EXPLORER-HCM Phase 3, double-blind, randomized, placebo-controlled trial; type: in vivo, human
Method: The safety of MAVACAMTEN was evaluated in EXPLORER-HCM, a Phase 3, double-blind, randomized, placebo-controlled trial. Of the 251 adults with obstructive HCM, 123 patients were treated with MAVACAMTEN 2.5-15 mg daily and 128 were treated with placebo.
The efficacy of MAVACAMTEN was evaluated in EXPLORER-HCM (NCT-03470545) a Phase 3, double-blind, randomized, placebo-controlled, multicenter, international, parallel-group trial in 251 adults with symptomatic NYHA class II and III obstructive HCM, LVEF ≥55%, and Valsalva LVOT peak gradient ≥50 mmHg at rest or with provocation.
Patients on dual therapy with beta blocker and calcium channel blocker treatment or monotherapy with disopyramide or ranolazine were excluded. Patients with a known infiltrative or storage disorder causing cardiac hypertrophy that mimicked obstructive HCM, such as Fabry disease, amyloidosis, or Noonan syndrome with left ventricular hypertrophy, were also excluded.
Patients were randomized in a 1:1 ratio to receive either a starting dose of 5 mg of MAVACAMTEN or placebo once daily for 30 weeks. Treatment assignment was stratified by baseline NYHA functional class, baseline use of beta blockers, and type of ergometer (treadmill or exercise bicycle).
All patients were initiated on MAVACAMTEN 5 mg (or matching placebo) once daily, and the dose was periodically adjusted to optimize patient response (decrease in LVOT gradient with Valsalva maneuver) and maintain LVEF ≥50%. The dose was also informed by plasma concentrations of MAVACAMTEN.
The primary composite functional endpoint, assessed at 30 weeks, was defined as the proportion of patients who achieved either improvement of […] (pVO2) by ≥1.5 mL/kg/min plus improvement in NYHA class by at least 1 or improvement of pVO2 by ≥3.0 mL/kg/min plus no worsening in NYHA class.
The treatment effects of MAVACAMTEN on LVOT obstruction, functional capacity, and health status were assessed by change from baseline through Week 30 in post-exercise LVOT peak gradient, change in pVO2, proportion of patients with improvement in NYHA class, Kansas City Cardiomyopathy Questionnaire-23 (KCCQ-23) Clinical Summary Score (CSS), and Hypertrophic Cardiomyopathy Symptom Questionnaire (HCMSQ) Shortness of Breath (SoB) domain score.
Missing data were not imputed to summarize the baseline and change from baseline to Week 30 values. Difference in mean change from baseline between treatment groups was estimated using a mixed model for repeated measures.

rasH2 transgenic mouse = experiment: 6-month rasH2 transgenic mouse carcinogenicity study; type: in vivo
[2] = system: adults with symptomatic NYHA class II and III obstructive HCM; conditions: Olivotto et al., 2020, The Lancet; cited from earlier work
CYP2B6 = CYP2B6 (Homo sapiens, UniProt P20813); experiment: In vitro CYP inhibition; type: in vitro ADME
Chain of CYP2B6 (P20813 whole entry): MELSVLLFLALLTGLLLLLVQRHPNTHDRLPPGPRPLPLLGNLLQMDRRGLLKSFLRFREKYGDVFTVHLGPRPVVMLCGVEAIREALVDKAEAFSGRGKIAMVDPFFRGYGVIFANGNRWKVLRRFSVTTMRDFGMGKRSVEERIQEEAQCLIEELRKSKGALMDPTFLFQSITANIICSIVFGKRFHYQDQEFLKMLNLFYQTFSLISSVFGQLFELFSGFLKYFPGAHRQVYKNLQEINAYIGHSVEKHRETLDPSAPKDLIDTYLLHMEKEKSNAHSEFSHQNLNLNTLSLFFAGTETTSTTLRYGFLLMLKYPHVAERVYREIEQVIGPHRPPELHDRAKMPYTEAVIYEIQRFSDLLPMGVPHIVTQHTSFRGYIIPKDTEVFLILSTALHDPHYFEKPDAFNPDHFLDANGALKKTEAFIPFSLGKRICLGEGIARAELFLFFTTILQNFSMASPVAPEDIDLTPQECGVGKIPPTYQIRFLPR
Source text: (§1) Mavacamten is a CYP2B6 inducer.

CYP2C19 = CYP2C19 (Homo sapiens, UniProt P33261); experiment: In vitro CYP inhibition; type: in vitro ADME; conditions: at clinically relevant concentrations
Chain of CYP2C19 (P33261 whole entry): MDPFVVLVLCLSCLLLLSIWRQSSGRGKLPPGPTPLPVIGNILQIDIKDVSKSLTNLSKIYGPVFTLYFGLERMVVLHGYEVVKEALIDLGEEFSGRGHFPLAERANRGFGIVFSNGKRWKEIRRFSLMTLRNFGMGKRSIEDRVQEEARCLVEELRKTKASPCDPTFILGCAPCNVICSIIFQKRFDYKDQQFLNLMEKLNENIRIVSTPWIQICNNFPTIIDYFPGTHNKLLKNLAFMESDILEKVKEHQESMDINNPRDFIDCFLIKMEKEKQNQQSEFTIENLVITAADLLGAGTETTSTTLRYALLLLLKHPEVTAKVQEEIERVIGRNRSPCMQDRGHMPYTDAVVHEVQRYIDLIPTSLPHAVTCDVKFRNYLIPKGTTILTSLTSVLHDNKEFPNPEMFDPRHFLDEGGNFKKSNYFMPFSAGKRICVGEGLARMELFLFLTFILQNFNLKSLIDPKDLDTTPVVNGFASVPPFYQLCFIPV
Source text: as §1

CYP2C9 = CYP2C9 (Homo sapiens, UniProt P11712); experiment: In vitro CYP inhibition; type: in vitro ADME; conditions: at clinically relevant concentrations
Chain of CYP2C9 (P11712 whole entry): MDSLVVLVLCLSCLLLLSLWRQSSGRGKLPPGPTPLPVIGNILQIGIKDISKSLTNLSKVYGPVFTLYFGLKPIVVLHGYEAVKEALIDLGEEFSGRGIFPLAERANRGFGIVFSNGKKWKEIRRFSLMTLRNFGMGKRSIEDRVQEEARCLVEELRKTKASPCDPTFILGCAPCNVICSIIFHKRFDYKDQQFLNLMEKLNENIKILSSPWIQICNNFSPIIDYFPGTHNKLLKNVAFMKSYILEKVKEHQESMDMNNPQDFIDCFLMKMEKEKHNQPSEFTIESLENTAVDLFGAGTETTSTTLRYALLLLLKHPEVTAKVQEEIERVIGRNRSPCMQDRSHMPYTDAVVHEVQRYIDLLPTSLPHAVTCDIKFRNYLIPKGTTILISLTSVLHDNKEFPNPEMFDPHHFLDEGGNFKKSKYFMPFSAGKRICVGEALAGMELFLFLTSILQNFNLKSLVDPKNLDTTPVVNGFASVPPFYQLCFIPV
Source text: as §1

CYP2C8 = CYP2C8 (Homo sapiens, UniProt P10632); experiment: In vitro CYP inhibition; type: in vitro ADME
Chain of CYP2C8 (P10632 whole entry): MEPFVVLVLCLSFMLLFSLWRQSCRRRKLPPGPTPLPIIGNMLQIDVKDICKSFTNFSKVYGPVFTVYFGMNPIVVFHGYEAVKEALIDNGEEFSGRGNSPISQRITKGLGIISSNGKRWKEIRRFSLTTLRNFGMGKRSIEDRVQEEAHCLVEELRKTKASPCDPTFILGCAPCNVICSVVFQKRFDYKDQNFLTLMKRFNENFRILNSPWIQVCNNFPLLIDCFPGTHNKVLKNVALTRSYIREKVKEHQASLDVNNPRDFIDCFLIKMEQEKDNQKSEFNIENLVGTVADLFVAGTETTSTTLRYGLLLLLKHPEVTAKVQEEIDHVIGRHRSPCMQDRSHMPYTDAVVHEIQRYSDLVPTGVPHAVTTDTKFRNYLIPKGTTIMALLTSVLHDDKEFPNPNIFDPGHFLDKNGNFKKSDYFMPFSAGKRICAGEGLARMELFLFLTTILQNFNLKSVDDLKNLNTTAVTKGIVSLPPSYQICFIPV
Source text: as §1

CYP2D6 = CYP2D6 (Homo sapiens, UniProt P10635); experiment: In vitro CYP inhibition; type: in vitro ADME; conditions: at clinically relevant concentrations
Chain of CYP2D6 (P10635 whole entry): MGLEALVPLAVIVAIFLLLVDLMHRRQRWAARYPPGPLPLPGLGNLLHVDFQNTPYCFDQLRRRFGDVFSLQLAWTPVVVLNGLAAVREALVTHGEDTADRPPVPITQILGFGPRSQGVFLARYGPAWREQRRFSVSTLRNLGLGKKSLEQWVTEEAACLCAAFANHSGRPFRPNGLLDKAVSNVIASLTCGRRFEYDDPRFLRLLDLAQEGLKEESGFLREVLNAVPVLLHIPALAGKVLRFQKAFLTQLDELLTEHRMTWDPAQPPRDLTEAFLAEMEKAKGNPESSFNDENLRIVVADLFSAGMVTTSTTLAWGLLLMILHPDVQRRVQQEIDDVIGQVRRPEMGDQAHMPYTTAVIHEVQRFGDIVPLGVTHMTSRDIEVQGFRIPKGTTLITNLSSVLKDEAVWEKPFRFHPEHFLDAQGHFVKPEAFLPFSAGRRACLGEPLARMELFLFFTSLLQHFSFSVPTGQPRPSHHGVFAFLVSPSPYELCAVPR
Source text: as §1

CC(C)n1c(=O)cc(N[C@@H](C)c2ccccc2)[nH]c1=O [mavacamten, (S)-3-Isopropyl-6-((1-phenylethyl)amino)pyrimidine-2,4(1H,3H)-dione]
Subgroup analysis of the primary composite functional endpoint ([1]; FIG. 17): consistently favored MAVACAMTEN across all subgroups analyzed
Adverse reaction: syncope, patients ([1]; MAVACAMTEN 2.5-15 mg daily, N=123, placebo 2%): 6%
Adverse reaction: dizziness, patients ([1]; MAVACAMTEN 2.5-15 mg daily, N=123, placebo 18%): 27%
Improvement across secondary endpoints vs placebo ([1]; Week 30): greater improvement compared to the placebo group across all secondary endpoints
NYHA Class improved ≥1, difference vs placebo ([1]; Week 30): 34%
Total responders, difference vs placebo (95% CI) ([1]; Week 30): 19% (9, 30)
pVO2 ≥1.5 mL/kg/min and decreased NYHA, difference vs placebo (95% CI) ([1]; Week 30): 19% (9, 30)
pVO2 ≥3 mL/kg/min and NYHA not increased, difference vs placebo (95% CI) ([1]; Week 30): 13% (3, 22)
Change from baseline pVO2 ≥1.5 mL/kg/min and decreased NYHA, number ([1]; Week 30, N=123): 41
Change from baseline pVO2 ≥3 mL/kg/min and NYHA not increased, number ([1]; Week 30, N=123): 29
Number with NYHA Class improved ≥1 ([1]; Week 30, N=123): 80
Primary composite functional endpoint, total responders, number ([1]; Week 30, N=123): 45
Primary composite functional endpoint, total responders, percent ([1]; Week 30, N=123, placebo 17%): 37%
KCCQ-23 CSS, change from baseline, mean ([1]; Week 30, n=99, placebo 4): 14
HCMSQ SoB, change from baseline, mean ([1]; Week 30, n=108, placebo −1): −3
KCCQ-23 PL, change from baseline, mean ([1]; Week 30, placebo 4): 15
KCCQ-23 TSS, change from baseline, mean ([1]; Week 30, placebo 5): 12
Change from baseline pVO2 ≥3 mL/kg/min and NYHA not increased, percent ([1]; Week 30, placebo 11%): 23%
Change from baseline pVO2 ≥1.5 mL/kg/min and decreased NYHA, percent ([1]; Week 30, placebo 14%): 33%
Percent with NYHA Class improved ≥1 ([1]; Week 30, placebo 31%): (65%)
LVEF outcome after interruption in patients with LVEF <50% ([1]; all 7 patients): LVEF recovered following interruption
Benefit by background beta blocker therapy ([1]; attenuated improvement in pVO2): smaller in patients on background beta blocker therapy
Post-Exercise LVOT gradient, difference vs placebo ([1]; baseline to Week 30): −35 mmHg
pVO2, difference vs placebo ([1]; baseline to Week 30): 1.4 mL/kg/min
Change in pVO2, mean ([1]; baseline to Week 30, placebo −0.1): 1.4 mL/kg/min
Change in Post-Exercise LVOT gradient, mean ([1]; baseline to Week 30, placebo −10): −47 mmHg
patients who temporarily interrupted their dose due to LVEF <50% ([1]; in vivo): Three
patients whose LVEF reduction to <50% was asymptomatic ([1]; of the 7 MAVACAMTEN patients): 3
mean (SD) absolute change from baseline in LVEF ([1]; over the 30-week treatment period, placebo 0% (7)): -4% (8)
Syncope leading to discontinuation, patients ([1]; patients receiving MAVACAMTEN): 0.8%
onset of reduction in LVOT gradient ([1]; sustained throughout the 30-week trial): reductions in mean resting and provoked (Valsalva) LVOT gradient by Week 4
patients with reversible reductions in LVEF to <50%, number ([1]; while on treatment, N=123): 7
patients with reversible reductions in LVEF to <50%, percent ([1]; while on treatment, placebo 2%): 6%
Carcinogenicity (rasH2 transgenic mouse; 6-month, up to 2.0 mg/kg/day in males and 3.0 mg/kg/day in females): no evidence of carcinogenicity
Exposure (AUC) compared to humans at the MRHD (rasH2 transgenic mouse; females, 3.0 mg/kg/day): 3 fold
Exposure (AUC) compared to humans at the MRHD (rasH2 transgenic mouse; males, 2.0 mg/kg/day): 1.8 fold
Clinical benefit in EXPLORER-HCM [2]: effective in reducing LVOT gradients and improving symptoms, exercise performance and health status
Inhibition of CYP2B6 (CYP2B6): does not inhibit
Inhibition of CYP2C19 (CYP2C19): not an inhibitor
Inhibition of CYP2C9 (CYP2C9): not an inhibitor
Inhibition of CYP2C8 (CYP2C8): does not inhibit
Inhibition of CYP2D6 (CYP2D6): not an inhibitor
